Patent US20100279409A1, “METHOD FOR MODIFYING CELLUAR IMMUNE RESONSE BY MODULATING ACTIVIN ACTIVITY” (priority 2007, published 2010)

How the values were obtained:
Human NK cells [1] = assay: Intracellular cytokine staining of IFN-γ in NK cells; assay type: cell-based; conditions: 16 hours, BFA 1 μg/ml
Experimental: In these experiments 1×10^5 highly purified human NK cells were cultured as above, but were cultured with Poly I:C (10 μg/ml), or LPS (100 ng/ml), with or without 10, 50, or 100 ng/ml of recombinant human activin-A. In some cases, the known compound “SB431542,” which blocks activin-A binding to receptors was added. IFN-γ was then measured via ELISA, or by intracellular cytokine staining after 16 hours of culture, via addition of 1 μg/ml BFA, to prevent cytokine release.
In additional follow up experiments, the NK cells were stimulated with IL-2 or the combination of IL-2 and IL-12, plus poly I:C or LPS, for 16 hours, in the presence of 1 μg/ml of BFA, before a standard ICS assay was carried out via flow cytometry.

Human NK cells [2] = assay: Western blot for Smad 2/3 in NK cells; assay type: cell-based; conditions: ex vivo purified NK cells, 50 ng/ml activin-A, 4 hours
Experimental: Human NK cells were highly purified, following standard methods; and were either lysed immediately or cultured for 20 hours in medium that had been supplemented with 20 U/ml IL-2, either with or without 10 ng/ml of IL-12, or with or without the toll like receptor 3 ligand Poly I:C, 5×10^5, lysed immediately, and then assayed for ALK-4 (an activin type I receptor), and RITA (an activin type II receptor), via qRT-PCR. In parallel, 1×10^5 highly purified NK cells were cultured in medium supplemented with 20 U/ml IL-2, with or without 50 ng/ml of recombinant human activin-A. Cells were harvested after 4 hours, and Western blotting was carried out for Smad 2/3 and β-actin.

NK cells [3] = assay: NK cell viability by caspase and PI staining; assay type: cell-based, human; conditions: 24 hours
Experimental: With respect to testing viability, 1×10^5 purified NK cells were cultured as described supra, in 96 well-plates. After 24 hours of culture, cells were stained with antibodies to polycaspase, caspase 3/7, caspase 8 and PI.

CD8+ T cells = assay: Purified CD8+ T cell activation and expansion with recombinant activin-A; assay type: cell-based, human; conditions: anti-CD3/CD28 beads, activin-A 0, 10, 100 ng/ml, 24 or 72 hours
Experimental: To test this, CD8^+ T cells were purified and labeled with carboxy fluorescein succinimidy/ester (“CFSE” hereafter). These cells were cultured in wells, at 1×10^5 cells/well, in standard medium supplemented with 20 U/ml of IL-2, either with or without anti-CD3/CD28 bead stimulation, in the presence of increasing doses of commercially available, recombinant activin-A (0, 10, and 100 ng/ml), for 24 or 72 hours. Cell division was assessed over time by flow cytometry and IFN-γ production via a standard ELISA.

NK cells [4] = assay: NKp30 expression on NK cells by flow cytometry; assay type: cell-based, human; conditions: NK cells after 3 day culture, 100 ng/ml
Experimental: In order to investigate the mechanism behind these differences, the same NK cells were purified and cryopreserved immediately after the 3 day culture period. The cells were thawed, washed, and stained for NCR. NKp30, with expression levels determined via flow cytometry. The level of expression was also determined using “ex vivo” samples, and NK cells that were cultured, without exposure to targets.

NK cells [5] = assay: qRT-PCR of NK cell gene expression; assay type: cell-based, human; conditions: 16 hours
Experimental: In a second set of experiments, 5×10^5 purified NK cells were cultured as described herein, in 24 well-plates and were then collected, and lysed after 16 hours of culture.
The lysates were treated to extract the mRNA, which was then subjected to qRT-PCR to determine expression of each of T-bet (a transcription factor), IFN-γ, perforin, granzyme A, and granzyme B.

NK cells [6] = assay: Flow cytometry of CD25 and CD56 on NK cells; assay type: cell-based, human
Experimental: As above, 1×10^5 purified NK cells were cultured in 96 well-plates in media that had been supplemented with IL-2 and IL-12, either with or without the addition of TLR ligands, in the presence of activin-A (100 ng/ml).
After 24 hours, […] were collected, and stained with anti-CD25 antibodies, with expression being determined by flow cytometry.

Human NK cells [7] = assay: CFSE division assay of NK cells; assay type: cell-based; conditions: 5 days, activin-A 100 ng/ml
Experimental: In these experiments, 1×10^5 highly purified human NK cells were labeled with CFSE, and cultured for 5 days in medium supplemented with 20 U/ml IL-2 and 10 ng/ml IL-12, either with or without Poly I:C or LPS, either with or without 100 ng/ml of human recombinant activin-A. Cellular division was assessed by determining loss of CFSE intensity using known, flow cytometric methods.

Human NK cells [8] = assay: IFN-γ ELISA of purified NK cells; assay type: cell-based
Experimental: A total of 1×10^5 highly purified human NK cells were cultured for 20 hours in medium supplemented with 20 U/ml IL-2, and 10 ng/ml IL-12. Either human recombinant activin-A, or TGF-β was added to the cultures, at concentrations of 10, 50 and 100 ng/ml. Supernatants were then tested for IFN-γ via ELISA, using standard methods. In these experiments 1×10^5 highly purified human NK cells were cultured as above, but were cultured with Poly I:C (10 μg/ml), or LPS (100 ng/ml), with or without 10, 50, or 100 ng/ml of recombinant human activin-A. In some cases, the known compound “SB431542,” which blocks activin-A binding to receptors was added. IFN-γ was then measured via ELISA, or by intracellular cytokine staining after 16 hours of culture, via addition of 1 μg/ml BFA, to prevent cytokine release. The impact of activin-A on production of IFN-γ by NK cells, in the absence of dendritic cells, was ascertained. Purified NK cells (1×10^5) were cultured in 96 well-plants, in media that was supplemented with 20 U/ml IL-2 and 10 ng/ml, IL-12, in the absence of, or with increasing concentrations of either activin-A, or TGF-β. Culture supernatants were assayed for IFN-γ after 24 hours of culture, using ELISAs, as described supra. As in the prior experiments, 1×10^5 purified NK cells were cultured in media supplemented with IL-2 only, or IL-2 plus IL-12, either with or without one of poly I:C or LPS, in the presence or absence of increased levels of activin-A.

C57/B6 mice = assay type: in vivo, mouse; conditions: 100 ng activin-A subcutaneously, live influenza virus intraperitoneally, day 7

activin-A
number of IFN-γ producing cells (Human NK cells [1]): not due to a decrease in the number of IFN-γ producing cells
number of IFN-γ producing cells (Human NK cells [1]; listed as Activin-A): did not effect these populations
intracellular Smad 2/3 levels (Human NK cells [2]): enhanced intracellular Smad 2/3 levels
apoptosis (polycaspase, caspase 3/7, caspase 8, PI staining) (NK cells [3]): no indication of apoptosis
CD8+ T cell ability to generate IFN-γ (CD8+ T cells): did not regulate
CD8+ T cell division (CD8+ T cells): did not regulate
NKp30 expression (NK cells [4]): a very limited effect
IFN-γ mRNA expression (NK cells [5]): inhibited expression of T-bet and IFN-γ significantly
T-bet mRNA expression (NK cells [5]): inhibited expression of T-bet and IFN-γ significantly
perforin, granzyme A and granzyme B mRNA expression (NK cells [5]): had no effect
downregulation of CD56 (NK cells [6]; Example 16): suppressed
upregulation of CD25 (NK cells [6]; Example 16): suppressed
CD25 expression (NK cells [6]; IL-2 and IL-12 with or without TLR ligands, activin-A 100 ng/ml, 24 hours): significantly suppressed
division and proliferation of NK cells (Human NK cells [7]; IL-2, IL-12, LPS): very strongly suppressed
division and proliferation of NK cells (Human NK cells [7]; IL-2, IL-12, Poly I:C): very strongly suppressed
IFN-γ production (Human NK cells [8]; NK cells stimulated with Poly I:C, activin-A 10, 50, 100 ng/ml): suppressed IFN-γ production
IFN-γ production (Human NK cells [8]; NK cells, IL-2 and IL-12, 20 hours, 10, 50, 100 ng/ml): as effective as TGF-β in suppressing the production of IFN-γ
IFN-γ production (Human NK cells [8]; NK cells, IL-2 and IL-12, 24 hours, increasing concentrations): as potent as TGF-β in inhibiting IFN-γ production
IFN-γ production (Human NK cells [8]; NK cells, IL-2 plus IL-12 with poly I:C or LPS, increased levels of activin-A): suppressed by addition of activin-A, in a concentration dependent manner
peptide specific CD8+ IFN-γ+ T cell response (C57/B6 mice): suppressed
